Assay results taken from US11339163B2, “BRaf inhibitors and use thereof for treatment of cutaneous reactions” (Lutris Pharma Ltd., priority 2017, dated 2022).

Experiments:
[1] = molecular target: CHK1(h) (Homo sapiens, UniProt O14757); experiment: KinaseProfiler kinase selectivity assay; assay type: biochemical
Experimental: (§1) All compounds were prepared to 50× final assay concentration in 100% DMSO. This working stock of the compound was added to the assay well as the first component in the reaction, followed by the remaining components. In the standard KinaseProfiler™ service, there is no pre-incubation step between the compound and the kinase prior to initiation of the reaction. The positive control wells contain all components of the reaction, except the compound of interest; however, DMSO (at a final concentration of 2%) is included in these wells to control for solvent effects. The blank wells contain all components of the reaction, with a reference inhibitor replacing the compound of interest. This abolishes kinase activity and establishes the base-line (0% kinase activity remaining).

[2] = molecular target: Rsk1(h) (Homo sapiens, UniProt Q15418); experiment: KinaseProfiler kinase selectivity assay; assay type: biochemical
Experimental: as §1

[3] = molecular target: PI3 Kinase (p120γ)(h) (Homo sapiens, UniProt P48736); experiment: KinaseProfiler kinase selectivity assay; assay type: biochemical
Experimental: as §1

[4] = molecular target: PKBα(h) (Homo sapiens, UniProt P31749); experiment: KinaseProfiler kinase selectivity assay; assay type: biochemical
Chain of PKBα(h) (P31749 whole entry): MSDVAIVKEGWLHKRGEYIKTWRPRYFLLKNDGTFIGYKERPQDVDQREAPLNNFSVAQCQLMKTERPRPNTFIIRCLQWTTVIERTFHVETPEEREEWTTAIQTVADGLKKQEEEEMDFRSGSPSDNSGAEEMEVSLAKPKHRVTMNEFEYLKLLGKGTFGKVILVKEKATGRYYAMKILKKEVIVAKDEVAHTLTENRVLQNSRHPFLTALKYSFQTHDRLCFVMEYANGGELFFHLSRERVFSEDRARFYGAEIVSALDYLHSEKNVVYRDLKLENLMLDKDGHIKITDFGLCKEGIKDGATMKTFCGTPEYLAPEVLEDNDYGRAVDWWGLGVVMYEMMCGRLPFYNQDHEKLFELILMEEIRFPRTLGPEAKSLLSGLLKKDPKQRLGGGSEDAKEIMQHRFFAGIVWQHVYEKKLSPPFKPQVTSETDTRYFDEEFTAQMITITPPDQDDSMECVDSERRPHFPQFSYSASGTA
Experimental: as §1

[5] = molecular target: mTOR(h) (Homo sapiens, UniProt P42345); experiment: KinaseProfiler kinase selectivity assay; assay type: biochemical
Experimental: as §1

[6] = molecular target: MLK1(h) (Homo sapiens, UniProt P80192); experiment: KinaseProfiler kinase selectivity assay; assay type: biochemical
Experimental: as §1

[7] = molecular target: JAK2(h) (Homo sapiens, UniProt O60674); experiment: KinaseProfiler kinase selectivity assay; assay type: biochemical
Chain of JAK2(h) (O60674 whole entry): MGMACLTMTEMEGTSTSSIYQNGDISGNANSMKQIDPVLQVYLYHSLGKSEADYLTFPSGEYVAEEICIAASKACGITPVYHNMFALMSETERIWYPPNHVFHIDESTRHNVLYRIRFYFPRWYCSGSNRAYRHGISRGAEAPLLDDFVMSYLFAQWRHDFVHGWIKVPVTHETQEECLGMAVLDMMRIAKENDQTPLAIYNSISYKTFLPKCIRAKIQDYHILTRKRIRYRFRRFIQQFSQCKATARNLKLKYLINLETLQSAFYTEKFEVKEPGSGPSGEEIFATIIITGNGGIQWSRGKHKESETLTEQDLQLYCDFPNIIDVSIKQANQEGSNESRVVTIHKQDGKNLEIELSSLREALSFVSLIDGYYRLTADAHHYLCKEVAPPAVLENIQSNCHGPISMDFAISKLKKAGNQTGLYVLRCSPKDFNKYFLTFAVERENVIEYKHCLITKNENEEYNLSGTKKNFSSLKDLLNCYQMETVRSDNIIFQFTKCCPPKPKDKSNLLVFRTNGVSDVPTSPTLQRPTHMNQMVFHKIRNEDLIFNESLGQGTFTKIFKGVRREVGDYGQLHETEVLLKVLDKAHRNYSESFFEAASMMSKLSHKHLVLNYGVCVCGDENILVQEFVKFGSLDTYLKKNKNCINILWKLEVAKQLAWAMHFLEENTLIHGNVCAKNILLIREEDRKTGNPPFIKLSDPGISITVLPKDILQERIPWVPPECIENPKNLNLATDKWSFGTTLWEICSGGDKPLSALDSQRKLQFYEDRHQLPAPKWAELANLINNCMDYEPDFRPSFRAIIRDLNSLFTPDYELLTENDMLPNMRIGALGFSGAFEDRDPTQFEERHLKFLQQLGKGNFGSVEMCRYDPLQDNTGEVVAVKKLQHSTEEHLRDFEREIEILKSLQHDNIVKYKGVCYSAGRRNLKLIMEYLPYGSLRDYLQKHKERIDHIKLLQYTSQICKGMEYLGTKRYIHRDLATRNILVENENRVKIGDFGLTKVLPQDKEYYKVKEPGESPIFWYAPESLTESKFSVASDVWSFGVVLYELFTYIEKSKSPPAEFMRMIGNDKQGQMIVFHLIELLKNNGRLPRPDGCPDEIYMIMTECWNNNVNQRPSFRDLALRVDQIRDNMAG
Experimental: as §1

[8] = molecular target: EphB4(h) (Homo sapiens, UniProt P54760); experiment: KinaseProfiler kinase selectivity assay; assay type: biochemical
Experimental: as §1

[9] = molecular target: ASK1(h) (Homo sapiens, UniProt Q99683); experiment: KinaseProfiler kinase selectivity assay; assay type: biochemical
Chain of ASK1(h) (Q99683 whole entry): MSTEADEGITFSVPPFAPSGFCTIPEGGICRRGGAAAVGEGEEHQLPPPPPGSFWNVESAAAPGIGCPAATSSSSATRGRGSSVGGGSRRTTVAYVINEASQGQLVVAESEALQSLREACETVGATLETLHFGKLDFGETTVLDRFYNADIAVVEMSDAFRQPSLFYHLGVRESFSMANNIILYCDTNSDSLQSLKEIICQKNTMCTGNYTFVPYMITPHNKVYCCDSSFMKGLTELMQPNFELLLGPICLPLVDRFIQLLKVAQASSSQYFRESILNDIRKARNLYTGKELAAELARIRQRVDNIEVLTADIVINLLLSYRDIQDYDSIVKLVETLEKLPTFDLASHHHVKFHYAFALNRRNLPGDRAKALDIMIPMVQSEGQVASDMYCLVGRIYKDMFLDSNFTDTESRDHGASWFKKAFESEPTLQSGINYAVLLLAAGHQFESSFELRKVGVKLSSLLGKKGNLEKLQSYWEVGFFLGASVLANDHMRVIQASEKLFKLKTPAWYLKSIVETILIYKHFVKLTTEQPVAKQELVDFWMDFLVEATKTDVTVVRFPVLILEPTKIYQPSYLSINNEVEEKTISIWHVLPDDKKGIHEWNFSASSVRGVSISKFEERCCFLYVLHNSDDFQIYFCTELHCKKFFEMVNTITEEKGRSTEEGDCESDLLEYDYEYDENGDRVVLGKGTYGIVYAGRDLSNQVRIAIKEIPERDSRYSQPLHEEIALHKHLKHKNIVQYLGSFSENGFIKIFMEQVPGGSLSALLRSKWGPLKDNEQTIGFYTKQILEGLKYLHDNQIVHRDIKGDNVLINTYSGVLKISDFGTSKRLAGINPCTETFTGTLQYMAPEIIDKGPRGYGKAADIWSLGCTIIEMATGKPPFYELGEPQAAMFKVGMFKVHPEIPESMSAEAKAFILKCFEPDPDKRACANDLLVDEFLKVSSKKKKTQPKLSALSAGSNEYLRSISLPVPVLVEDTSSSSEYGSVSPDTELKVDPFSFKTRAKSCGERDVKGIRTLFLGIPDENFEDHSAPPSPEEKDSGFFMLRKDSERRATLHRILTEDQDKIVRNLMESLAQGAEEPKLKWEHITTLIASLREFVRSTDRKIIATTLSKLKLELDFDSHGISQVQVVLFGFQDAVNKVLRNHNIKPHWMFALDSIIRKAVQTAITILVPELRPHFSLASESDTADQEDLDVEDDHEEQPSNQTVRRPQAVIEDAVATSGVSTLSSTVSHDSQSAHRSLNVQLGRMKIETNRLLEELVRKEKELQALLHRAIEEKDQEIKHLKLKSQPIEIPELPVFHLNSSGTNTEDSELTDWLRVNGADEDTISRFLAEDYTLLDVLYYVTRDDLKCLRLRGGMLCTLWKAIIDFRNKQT
Experimental: as §1

[10] = molecular target: Pim-1(h) (Homo sapiens, UniProt P11309); experiment: KinaseProfiler kinase selectivity assay; assay type: biochemical
Experimental: as §1

[11] = molecular target: CDK9/cyclin T1(h) (Homo sapiens, UniProt P50750); experiment: KinaseProfiler kinase selectivity assay; assay type: biochemical
Experimental: as §1

[12] = molecular target: MAPKAP-K2(h) (Homo sapiens, UniProt P49137); experiment: KinaseProfiler kinase selectivity assay; assay type: biochemical
Experimental: as §1

[13] = molecular target: AMPKα1(h) (Homo sapiens, UniProt Q13131); experiment: KinaseProfiler kinase selectivity assay; assay type: biochemical
Chain of AMPKα1(h) (Q13131 whole entry): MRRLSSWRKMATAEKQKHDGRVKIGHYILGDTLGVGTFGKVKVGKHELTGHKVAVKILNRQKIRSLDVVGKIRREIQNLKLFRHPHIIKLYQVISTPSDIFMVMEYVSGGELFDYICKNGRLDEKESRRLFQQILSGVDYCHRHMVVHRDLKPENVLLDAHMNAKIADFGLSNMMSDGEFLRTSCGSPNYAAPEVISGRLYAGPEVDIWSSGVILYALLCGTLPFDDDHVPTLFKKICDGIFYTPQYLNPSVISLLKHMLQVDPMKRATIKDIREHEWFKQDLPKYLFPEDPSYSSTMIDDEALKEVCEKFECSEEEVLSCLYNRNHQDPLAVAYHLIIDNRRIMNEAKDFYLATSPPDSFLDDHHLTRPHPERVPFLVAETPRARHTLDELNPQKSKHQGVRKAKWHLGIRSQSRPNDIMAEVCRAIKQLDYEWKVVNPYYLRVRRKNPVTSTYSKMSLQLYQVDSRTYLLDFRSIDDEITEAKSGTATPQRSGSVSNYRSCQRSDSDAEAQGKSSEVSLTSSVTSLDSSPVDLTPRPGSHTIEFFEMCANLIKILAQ
Chain of AMPKα1(h) (Q9Y478 whole entry partner): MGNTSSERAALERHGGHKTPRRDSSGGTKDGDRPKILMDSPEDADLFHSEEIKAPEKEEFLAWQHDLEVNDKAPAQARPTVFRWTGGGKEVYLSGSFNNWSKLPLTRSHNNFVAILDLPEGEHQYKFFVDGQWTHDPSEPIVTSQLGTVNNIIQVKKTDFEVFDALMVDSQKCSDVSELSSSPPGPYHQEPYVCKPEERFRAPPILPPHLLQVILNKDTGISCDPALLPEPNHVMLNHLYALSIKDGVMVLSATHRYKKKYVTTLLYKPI
Chain of AMPKα1(h) (P54619 whole entry partner): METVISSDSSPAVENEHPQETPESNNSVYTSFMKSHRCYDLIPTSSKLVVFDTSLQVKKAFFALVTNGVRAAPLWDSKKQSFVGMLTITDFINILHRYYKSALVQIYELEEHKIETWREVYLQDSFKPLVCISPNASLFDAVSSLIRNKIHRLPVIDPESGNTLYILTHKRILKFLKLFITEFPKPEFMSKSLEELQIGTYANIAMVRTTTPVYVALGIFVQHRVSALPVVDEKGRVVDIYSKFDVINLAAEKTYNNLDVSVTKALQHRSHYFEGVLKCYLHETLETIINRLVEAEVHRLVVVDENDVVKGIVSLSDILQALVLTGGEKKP
Experimental: as §1

[14] = molecular target: ROCK-I(h) (Homo sapiens, UniProt Q13464); experiment: KinaseProfiler kinase selectivity assay; assay type: biochemical
Experimental: as §1

[15] = molecular target: PKCθ(h) (Homo sapiens, UniProt Q04759); experiment: KinaseProfiler kinase selectivity assay; assay type: biochemical
Experimental: as §1

[16] = molecular target: GSK3β(h) (Homo sapiens, UniProt P49841); experiment: KinaseProfiler kinase selectivity assay; assay type: biochemical
Experimental: as §1

[17] = molecular target: Lyn(h) (Homo sapiens, UniProt P07948); experiment: KinaseProfiler kinase selectivity assay; assay type: biochemical
Chain of Lyn(h) (P07948 whole entry): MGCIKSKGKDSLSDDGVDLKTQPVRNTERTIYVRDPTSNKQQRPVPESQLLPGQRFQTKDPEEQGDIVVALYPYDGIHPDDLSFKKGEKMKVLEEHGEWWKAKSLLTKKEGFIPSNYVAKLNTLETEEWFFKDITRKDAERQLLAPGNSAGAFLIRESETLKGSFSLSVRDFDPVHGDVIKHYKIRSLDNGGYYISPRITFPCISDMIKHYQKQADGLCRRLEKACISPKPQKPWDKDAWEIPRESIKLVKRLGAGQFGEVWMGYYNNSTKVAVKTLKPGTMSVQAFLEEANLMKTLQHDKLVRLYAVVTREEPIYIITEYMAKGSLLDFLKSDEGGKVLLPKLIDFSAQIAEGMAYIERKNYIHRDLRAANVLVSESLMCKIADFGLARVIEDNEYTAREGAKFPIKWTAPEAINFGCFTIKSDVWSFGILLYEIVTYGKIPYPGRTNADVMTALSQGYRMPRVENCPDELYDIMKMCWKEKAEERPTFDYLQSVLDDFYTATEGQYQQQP
Experimental: as §1

[18] = molecular target: CK2α2(h) (Homo sapiens, UniProt P19784); experiment: KinaseProfiler kinase selectivity assay; assay type: biochemical
Chain of CK2α2(h) (P19784 whole entry): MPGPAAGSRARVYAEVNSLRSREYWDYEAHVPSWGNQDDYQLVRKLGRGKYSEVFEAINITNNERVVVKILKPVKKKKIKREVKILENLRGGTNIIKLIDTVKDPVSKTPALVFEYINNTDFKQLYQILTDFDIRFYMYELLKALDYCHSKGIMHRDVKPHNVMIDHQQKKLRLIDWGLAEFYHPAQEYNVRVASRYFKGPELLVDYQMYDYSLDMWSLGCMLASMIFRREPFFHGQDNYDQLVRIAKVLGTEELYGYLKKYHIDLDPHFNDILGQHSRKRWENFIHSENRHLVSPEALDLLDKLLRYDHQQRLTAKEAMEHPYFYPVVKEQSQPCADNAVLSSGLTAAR
Experimental: as §1

[19] = molecular target: PRAK(h) (Homo sapiens, UniProt Q8IW41); experiment: KinaseProfiler kinase selectivity assay; assay type: biochemical
Experimental: as §1

[20] = molecular target: Mnk2(h) (Homo sapiens, UniProt Q9HBH9); experiment: KinaseProfiler kinase selectivity assay; assay type: biochemical
Experimental: as §1

[21] = molecular target: Aurora-A(h) (Homo sapiens, UniProt O14965); experiment: KinaseProfiler kinase selectivity assay; assay type: biochemical
Experimental: as §1

[22] = BCOP study (eye irritation)
[23] = tested on: Salmonella typhimurium; experiment: In vitro Ames test, reverse mutation assay; assay type: cell-based

Cc1ccc2c(Nc3cccc(OC(F)(F)F)c3)nccc2c1Nc1ncccc1-c1ncnc2[nH]cnc12 [LUT014]
remaining activity at 0.01 µM ([1]; Lut014 @ 0.01 μM): 100% | remaining activity at 1 µM ([1]; Lut014 @ 1 μM): 114% | remaining activity at 0.01 µM ([2]; Lut014 @ 0.01 μM): 106% | remaining activity at 1 µM ([2]; Lut014 @ 1 μM): 112% | remaining activity at 0.01 µM ([3]; Lut014 @ 0.01 μM): 96% | remaining activity at 1 µM ([3]; Lut014 @ 1 μM): 83% | remaining activity at 0.01 µM ([4]; Lut014 @ 0.01 μM): 102% | remaining activity at 1 µM ([4]; Lut014 @ 1 μM): 105% | remaining activity at 0.01 µM ([5]; Lut014 @ 0.01 μM): 100% | remaining activity at 1 µM ([5]; Lut014 @ 1 μM): 96% | remaining activity at 0.01 µM ([6]; Lut014 @ 0.01 μM): 109% | remaining activity at 1 µM ([6]; Lut014 @ 1 μM): 112% | remaining activity at 0.01 µM ([7]; Lut014 @ 0.01 μM): 126% | remaining activity at 1 µM ([7]; Lut014 @ 1 μM): 118% | remaining activity at 0.01 µM ([8]; Lut014 @ 0.01 μM): 93% | remaining activity at 1 µM ([8]; Lut014 @ 1 μM): 38% | remaining activity at 0.01 µM ([9]; Lut014 @ 0.01 μM): 109% | remaining activity at 1 µM ([9]; Lut014 @ 1 μM): 99% | remaining activity at 0.01 µM ([10]; Lut014 @ 0.01 μM): 96% | remaining activity at 1 µM ([10]; Lut014 @ 1 μM): 89% | remaining activity at 0.01 µM ([11]; Lut014 @ 0.01 μM): 110% | remaining activity at 1 µM ([11]; Lut014 @ 1 μM): 98% | remaining activity at 0.01 µM ([12]; Lut014 @ 0.01 μM): 110% | remaining activity at 1 µM ([12]; Lut014 @ 1 μM): 103% | remaining activity at 0.01 µM ([13]; Lut014 @ 0.01 μM): 106% | remaining activity at 1 µM ([13]; Lut014 @ 1 μM): 114% | remaining activity at 0.01 µM ([14]; Lut014 @ 0.01 μM): 107% | remaining activity at 1 µM ([14]; Lut014 @ 1 μM): 107% | remaining activity at 0.01 µM ([15]; Lut014 @ 0.01 μM): 106% | remaining activity at 1 µM ([15]; Lut014 @ 1 μM): 109% | remaining activity at 0.01 µM ([16]; Lut014 @ 0.01 μM): 105% | remaining activity at 1 µM ([16]; Lut014 @ 1 μM): 98% | remaining activity at 0.01 µM ([17]; Lut014 @ 0.01 μM): 101% | remaining activity at 1 µM ([17]; Lut014 @ 1 μM): 46% | remaining activity at 0.01 µM ([18]; Lut014 @ 0.01 μM): 98% | remaining activity at 1 µM ([18]; Lut014 @ 1 μM): 92% | remaining activity at 0.01 µM ([19]; Lut014 @ 0.01 μM): 101% | remaining activity at 1 µM ([19]; Lut014 @ 1 μM): 103% | remaining activity at 0.01 µM ([20]; Lut014 @ 0.01 μM): 112% | remaining activity at 1 µM ([20]; Lut014 @ 1 μM): 107% | remaining activity at 0.01 µM ([21]; Lut014 @ 0.01 μM): 95% | remaining activity at 1 µM ([21]; Lut014 @ 1 μM): 97% | IVIS [22]: ≤ 3 | classification for eye irritation or serious eye damage [22]: no classification is required | mutagenicity, Salmonella typhimurium reverse mutation assay [23]: not mutagenic
